≈ marks a conversion by molar mass, not a printed value. Blank lines part the entries; values can stand above or below the compound they belong to.
Columns and labels:
S. aureus ATCC 29213 [1] = assay: MIC determination, S. aureus ATCC 29213; conditions: S. aureus ATCC 29213 MIC screening; active = MIC ≤ 8 μg/mL
HepG2 cells = assay: XTT cytotoxicity assay with HepG2 cells
S. epidermis ATCC 35547 = assay: MIC determination, S. epidermis ATCC 35547; format: cell-based
S. aureus ATCC 29213 [2] = assay: Minimal-bactericidal concentration; conditions: S. aureus ATCC 29213 (MSSA); MBC = >1000-fold reduction in colonies
Full PK study in mice = conditions: mouse
S. aureus ATCC 29213 [3] = conditions: S. aureus ATCC 29213, MSSA quality-control strain; cited from earlier work

Structure (SMILES): CC(C)Nc1c[nH]nc1-c1nc(-c2ccc(Oc3ccc(C(F)(F)F)cc3)cc2)no1 [65b, N-Isopropyl-3-(3-(4-(4-(trifluoromethyl)phenoxy)phenyl)-1,2,4-oxadiazol-5-yl)-1H-pyrazol-4-amine]
antibacterial activity (in words) (S. aureus ATCC 29213 [1]): active
IC50 (HepG2 cells; Homo sapiens, HepG2, read-out: XTT HepG2 IC50): 3.9 ± 0.8 µg/mL (≈ 9.08 µM)
MIC (S. epidermis ATCC 35547): > 128 µg/mL

clearance as % of hepatic blood flow (Full PK study in mice; 20 mg/kg iv): less than 10%
t1/2α (Full PK study in mice; 20 mg/kg iv): t1/2α = 0.54 min
t1/2dist (Full PK study in mice; 20 mg/kg po): t1/2dist = 15.9 h
fold higher volume of distribution than 1 (Full PK study in mice; versus compound 1): 13 fold
fold lower clearance than 1 (Full PK study in mice; versus compound 1): 3 fold
Structure (SMILES): FC(F)(F)c1ccc(Oc2ccc(-c3noc(-c4ccc5[nH]ccc5c4)n3)cc2)cc1 [75b, 5-(1H-Indol-5-yl)-3-(4-(4-(trifluoromethyl)phenoxy)phenyl)-1,2,4-oxadiazole]
fold less toxic compared to the lead 1 (XTT HepG2) (HepG2 cells; HepG2 cells, versus compound 1): 5 fold
MBC relative to MIC (S. aureus ATCC 29213 [2]): the same as the MIC value

Structure (SMILES): CC(=O)NC[C@H]1CN(c2ccc(N3CCOCC3)c(F)c2)C(=O)O1 [linezolid]
MIC (S. aureus ATCC 29213 [3]): 4 µg/mL (≈ 11.9 µM)

Reference: PMC6863074 (Journal of medicinal chemistry, 2015)
